{"source": "patent US9216169B2", "about": "“Pharmaceutical composition comprising candesartan or ester thereof and chlortalidone, and use thereof” (TIANJIN INSTITUTE OF PHARMACEUTICAL RESEARCH, priority 2011, dated 2015)", "tested_on": "Spontaneously hypertensive rats (SHR)", "experiment": "SBP of SHR by Tail-Cuff method, first administration and continuous administration for 14 days (Examples 8-12)", "type": "in vivo, rat", "conditions": "for AUC0-24h: after first administration", "protocol": "Spontaneously hypertensive rats (SHR), male, are provided by Beijing Vital River Laboratory Animal Technology Co., Ltd. The number of animal production license is SCXK (Jing) 2007-0001. Animals are raised in an observation room at the room temperature of 25±2° C. controlled by central air-conditioning system and with artificial lighting of 12 h/day. The animals are raised in separate cages sized 43×27×18 cm with 4 animals for each cage. The rats are free access to water and are fed with block fodder everyday, and the water supply is refreshed once a day. The temperature of the room for measuring the blood pressure is 26±2° C.\nThe blood pressure is measured by Tail-Cuff method and the hear rate is measured according to the pulse frequency. Animals are pre-trained for the blood pressure measurement for more than 2 weeks so as to adapt to the environment of measurement. Animals are placed in a isothermal bag at 37° C. to be prewarmed for 5 to 10 min for formal measurement. Blood pressures of the rats are measured from tail arteries for 2 to 3 times at rest states, and an average value is taken as each blood pressure measured value. All data are collected and preserved by a computer.\nSHRs with systolic blood pressures (SBPs)>190 mmHg are selected for experiment.\nRats are randomly divided into 20 groups according to their blood pressures with each group having 8-10 rats. Animals are fasted overnight and measured for the blood pressure of pre-administration at the day of experiment, and then administered drugs in accordance with the following method:\nThe single-drug group is intragastrically administered candesartan (Can) or chlorthalidone (Chl), with the dosage of Can of 0.1, 0.2, 0.4 mg/kg respectively and the dosage of Chl of 0.3125, 0.625, 1.25 mg/kg respectively;\nAccording to the clinical single-drug specification, the ratios of Can+Chl are set as follows:\nFor the ratio of Can:Chl=1:6.25, one dose of 0.1+0.625 mg/kg is set;\nFor the ratio of Can:Chl=1:3.125, two doses of 0.2+0.625 and 0.4+1.25 mg/kg are set;\nFor the ratio of Can:Chl=1.28:1, one dose of 0.4+0.3125 mg/kg is set;\nFor the ratio of Can:Chl=2.56:1, one dose of 0.4+0.15625 mg/kg is set;\nThe administration volumes are all 5 mL/kg. Rats are continuously administered for 14 days. SBPs are measured 2, 4, 8, 12 and 24 hours after the first administration. On the day of 3, 7, 14 days after administration, the blood pressures are measured before administration and 5 hours after administration. Areas under blood pressure reduction-time curve from 0 to 24 h and from 0 to 14 days (AUC0-24h, AUC0-14d) are calculated.\nThe calculated results are expressed as mean±standard error ( x±SE); statistical treatment is performed using unpaired t test between groups to compare the significance of the average difference; the interaction between drugs are determined by using factorial analysis of variance, and P<0.05 means the difference has statistical significance.", "data": [{"smiles": "NS(=O)(=O)c1cc(C2(O)NC(=O)c3ccccc32)ccc1Cl", "note": "(stereo not drawn) [Chl, Chlorthalidone]", "values": [{"measurement": "AUC0-14d", "setting": "Chl 0.3125 mg/kg i.g. for 14 days", "value": "−125.9", "unit": "mmHg · d"}, {"measurement": "AUC0-24h", "setting": "Chl 0.3125 mg/kg i.g.", "value": "−133.1", "unit": "mmHg · h"}, {"measurement": "AUC0-14d", "setting": "Chl 0.625 mg/kg i.g. for 14 days", "value": "−134.5", "unit": "mmHg · d"}, {"measurement": "AUC0-24h", "setting": "Chl 0.625 mg/kg i.g.", "value": "−190.4", "unit": "mmHg · h"}, {"measurement": "AUC0-14d", "setting": "Chl 1.25 mg/kg i.g. for 14 days", "value": "−174.2", "unit": "mmHg · d"}, {"measurement": "AUC0-24h", "setting": "Chl 1.25 mg/kg i.g.", "value": "−208.1", "unit": "mmHg · h"}]}]}
